Test results: patent US12173349B2, “Lung protease nanosensors and uses thereof” (Massachusetts Institute of Technology, priority 2018, dated 2024)
Where no end group is shown, it is not given here. [ ]: non-standard residue; d: D form.

Key:
PA01 supernatant = assay: cleavage of FRET-paired substrates by bacterial supernatant; assay type: biochemical, Pseudomonas aeruginosa; conditions: added to PA01 supernatant
Description: The specificity of LAS and ELA for P. aeruginosa cleavage was tested by collecting supernatants from PA01 or Staphylococcus aureus cultures and incubating them with FRET-paired substrates LAS-Q and ELA-Q in 384 well plates. […] To investigate whether the LAS and ELA substrates are also susceptible to cleavage by host proteases, each was incubated with recombinant mouse proteases.
Supernatant from PA01 and S. aureus were collected and added to substrates in 384 well plates and dequenching of FAM was monitored at 37° C. (Tecan). Fluorescence change at 30 minutes was reported. For recombinant protease assays, enzyme was added to the substrates in enzyme-specific buffer (MMP7 & 9 buffer: 50 mM Tris, 150 mM NaCl, 5 mM CaCl2), […], pH 7.5; Thrombin: PBS; NE: 100 mM HEPES, 500 mM NaCl, 0.05% Tween 20) in a 384 well plate for time-lapse fluorimetry to measure dequenching at 37° C. (Tecan).

[1] = system: P. aeruginosa strain PA01 lung infection; assay: histology and immunofluorescence of lung sections after antibiotic treatment; assay type: in vivo, mice
Description: To test whether inflammation remained after antibiotic therapy, histological and immunofluorescence analysis of lung sections were performed from infected and treated mice. […] The robust diagnostic capability of ELA to identify infection but poor ability to monitor treatment, paired with the robust ability for LAS to specifically monitor treatment highlights the importance of multiplexing and measuring both host and pathogen factors.
Individual responses to antimicrobial treatment can be highly variable, dependent upon the strain of pathogen and the presence of antibiotic resistance, and current clinical tests take 24-72 hours to identify antibiotic susceptibility (Caliendo et al., Clin Infect Dis, 57, S139, 2013). In addition, current clinical tests used to visualize lung infections (e.g., chest X-ray and computed tomography) are often unable to distinguish active infections from those that have been adequately treated until several weeks after antibiotic therapy is complete, because the airspace opacifications characteristic of pneumonia remain apparent on routine radiography screens (Bruns et al., J Gen Intern Med, 25, 203, 2010). Therefore, the ability of the infection-tracking ABNs to identify successful versus insufficient treatment on an acute time-scale shortly after therapeutic initiation was sought to be evaluated. Only 5 hours after establishing lung infections with PA01, antibiotic treatment was initiated with either ciprofloxacin (efficacious against P. aeruginosa) or doxycycline (ineffective against gram-negative bacteria including P. aeruginosa) (FIG. 13A). The following day, multiplexed LAS-E and ELA-E ABNs were administered and urine was collected. […] The persistent Pseudomonas immunostaining observed following ciprofloxacin treatment might be derived from residual Pseudomonas antigens remaining from lysed bacteria that had not yet been cleared by the immune system. Alternatively, the reduced LAS sensor reading in these treated mice could reflect a suppression of LasA secretion from bacteria as they are killed by the potent antibiotic.
All animal studies were approved by Massachusetts Institute of Technology's Committee on Animal Care. For infection studies, 5-7 week old female CD-1 mice were innoculated intratracheally with 1.25×10^6 CFU of P. aeruginosa strain PA01 in 50 μL of PBS. Bacteria were cultured overnight in LB broth, then subcultured and grown to log phase (OD600≈0.5). Bacteria were pelleted, washed with sterile PBS, and then resuspended to the requisite concentration for intratracheal administration. Mice were administered buprenorphine and meloxicam several hours after infection. For antibiotic treatment studies, mice were injected intraperitoneally with 40 mg/kg ciprofloxacin or 30 mg/kg doxycycline twice per day for up to 6 days.
Animals were perfused with PBS followed by 10% formalin solution. The lungs were resected and fixed in formalin before paraffin embedding and sectioning. […] Fluorescence images were acquired on a Perkin Elmer Pannoramic250. Quantification of neutrophil signal was completed by capturing 3-5 representative fields from each stained lung section and counting positive cells. Quantification of pseudomonas signal was completed by capturing 3-5 representative fields from each stained lung section and measuring total positive area after uniform thresholding of each single-channel fluorescence image (ImageJ).

[2] = system: Kras and p53 mutant lung adenocarcinoma (KP mice); assay: urinary ABN readout and random forest classification in KP lung adenocarcinoma model; assay type: in vivo
Description: To characterize ABN performance in vivo, 14 protease-sensitive ABNs were administered to KP mice and healthy, age and sex-matched controls at 5, 7.5 and 10.5 weeks after tumor initiation. Mouse bladders were voided one hour after intrapulmonary delivery and all fresh urine produced during the subsequent hour (from 60-120 minutes after administration) was pooled and collected. LC-MS/MS was performed and peak area ratios (defined as peak area of urinary reporter divided by peak area of spiked-in internal standard) of protease-sensitive reporters were mean-normalized within each sample to reduce mouse-to-mouse variation.
A random forest classifier was then sought to be built to enable prospective diagnosis of lung cancer in KP mice. Random forest is a high-performance classifier, applicable to a wide variety of classification tasks, that generates a collection of decision trees (a “forest”) that are sampled to produce classification results (Breiman, Machine Learning 45, 5-32, 2001). A random forest classifier was trained using 50% of control mice at 5 weeks, 7.5 weeks and 10.5 weeks, as well as 50% of KP mice at 7.5 weeks (FIG. 6A). The classifier assigned a probability that each mouse belonged to either the KP cohort or the healthy control cohort (FIG. 6B, “Training” panel), achieving perfect separation of control and KP mice. The classifier was then sought to be tested on an independent validation cohort consisting of classifier-naive KP mice at 5 weeks, 7.5 weeks and 10.5 weeks post-induction, as well as the remaining control mice from each time point.
Male B6/SV129 Kras^LSL-G12D/+; Trp53^fl/fl (KP) mice between 18 and 30 weeks old were used for lung adenocarcinoma experiments. Tumors were initiated, as described previously (DuPage et al., Nat Protoc 4, 1064-1072 (2009)), by the intratracheal administration of 50 μL of adenovirus-SPC-Cre (2.5×10^8 PFU in Opti-MEM with 10 mM CaCl2)) under isoflurane anesthesia. […] Tumor growth was monitored by micro computed tomography (microCT) imaging (General Electric) and was scored by a blinded radiation oncologist using MicroView (Parallax Innovations) (Table 4). Tumor volumes were calculated by using the ROI sphere/elliptical tool.
ABN constructs (GluFib-Substrate-PEG-840 kDa) for urinary experiments were synthesized by CPC Scientific (Sunnyvale, CA). ABNs were dosed (50 μL total volume, 20 μM concentration per ABN) by intratracheal intubation, as described above. Bladders were voided 60 minutes after ABN administration and all urine produced 60-120 min after ABN administration was collected using custom tubes in which the animals rest upon 96-well plates that capture urine. Urine was pooled and frozen at −80° C. until analysis by LC-MS/MS.
Liquid chromatography/tandem mass spectrometry was performed by Syneos Health (Princeton, NJ) using a Sciex 6500 triple quadrupole instrument. Briefly, urine samples were treated with UV irradiation to photocleave the ANP linker and liberate the Glu-Fib reporter from residual peptide fragments. Samples were extracted by solid-phase extraction and analyzed by multiple reaction monitoring by LC-MS/MS to quantify concentration of each Glu-Fib mass variant. Analyte quantities were normalized to a spiked-in internal standard and concentrations were calculated from a standard curve using peak area ratio (PAR) to the internal standard. Mean normalization was performed on PAR values to account for mouse-to-mouse differences in ABN inhalation efficiency and urine concentration.
Principal component analysis (PCA) was performed on mean normalized PAR values in the R statistical environment (Team, R.C. R, R Foundation for Statistical Computing, Vienna, Austria, 2017) using the prcomp function. Binary classification was performed using the Caret package (Kuhn, M. caret: Classification and Regression Training. (2017)) in the R statistical environment). […]

[3] = system: 15 proteases in the LUAD protease panel; assay: in vitro recombinant protease screen of FRET-paired substrates; assay type: biochemical; conditions: fluorescence fold change at 45 minutes; 1 μM substrate, 12.5 nM recombinant enzyme; MP metallo-, SP serine, AP aspartic protease
Excerpt: Hundreds of peptide sequences have been previously designed and validated as protease substrates, leveraging known catalytic specificities of different protease families, published datasets and substrate sequences in databases like cutDB and MEROPS (Igarashi et al., Nucleic Acids Res 35, D546-549, 2007; Rawlings et al., Nucleic Acids Res 46, D624-D632, 2018). Fourteen of these substrates were nominated in an effort to cover the specificity profiles of metallo-, serine and aspartic endoproteases, all of which were included in the LUAD protease panel, and the catalytic activity of each protease-substrate pair was characterized. Quenched probes that incorporated the 14 peptide substrates were synthesized such that they fluoresce upon proteolytic cleavage to enable real-time monitoring of protease activity in vitro (FIG. 3A and Table 2). Each probe was incubated with each protease in the panel and fluorescence was monitored over 45 minutes. Shown are sample kinetic plots monitoring dequenching of the 14 FRET-paired probes when incubated with (above) and without (below) recombinant matrix metalloproteinase 3 (MMP3) (FIG. 3B). […] See also FIG. 19.
Fluorogenic protease substrates were synthesized by CPC Scientific. Recombinant proteases were purchased from Enzo Life Sciences, R&D Systems and Haematologic Technologies. For recombinant protease assays, fluorogenic substrates PPQ1-14 (1 μM final concentration) were incubated in 30 μL final volume in appropriate enzyme buffer, according to manufacturer specifications, with 12.5 nM recombinant enzyme at 37° C. (FIG. 3). Proteolytic cleavage of substrates was quantified by increases in fluorescence over time by fluorimeter (Tecan Infinite M200 Pro). Enzyme cleavage rates were quantified as relative fluorescence increase over time normalized to fluorescence before addition of protease. Hierarchical clustering was performed in GENE-E, using fluorescence fold changes at 45 minutes.

[4] = 24 hours post-infection, after 19 hours of antibiotic therapy

Row | Compound | urinary reporter enrichment relative to healthy controls ([2]; KP7.5 wk urine) | urinary reporter enrichment relative to healthy controls ([2]; KP10.5 wk urine) | protease class(es) cleaving the substrate in vitro [3] | also measured
1 | [Cl-].[Cl-].[Zn+2] [ZnCl2, reference compound] | – | – | – | effect on cleavage signal of LAS-Q and ELA-Q (PA01 supernatant): suppressed the cleavage signal
2 | O=C(O)c1cn(C2CC2)c2cc(N3CCNCC3)c(F)cc2c1=O [ciprofloxacin] | – | – | – | decrease of Pseudomonas immunofluorescent signal compared to the doxycycline-treated group [1, 4]: ~60%; lung inflammation and neutrophils [1, 4]: marked lung inflammation and elevated neutrophils; Pseudomonas immunofluorescence signal in lungs of infected mice relative to uninfected or ciprofloxacin-treated mice ([1]; 4 day course of ciprofloxacin, 40 mg/kg intraperitoneally twice per day): 7-9 fold; Pseudomonas in lung sections after treatment ([1]; histology and immunofluorescent staining after ciprofloxacin course): no Pseudomonas; decrease in neutrophil count in lungs after antibiotic treatment ([1]; relative to infected mice): ~30%
3 | PP03: ABN: reporter e(+3G)(+1V)ndneeGFFs(+4A)r, ANP, substrate PVPLSLVM, nanocarrier PEG8-40 kDa (chain 1 [dE]G[+1V][dN][dD][dN][dE][dE]GFF[dS][+4A][dR]; not fully specified (some residues); printed as PP03: ABN: reporter e(+3G)(+1V)ndneeGFFs(+4A)r, ANP, substrate PVPLSLVM, nanocarrier PEG8-40 kDa; also: ANP photolabile linker, PEG8-40 kDa nanocarrier, linkage of reporter, ANP, substrate and carrier not given here) | enriched | enriched | metalloproteases or both metalloproteases and aspartic proteases | –
4 | PP02: ABN: reporter eG(+6V)ndneeGF(+1F)s(+1A)r, ANP, substrate PVGLIG, nanocarrier PEG8-40 kDa (chain 1 EGVNDNEEGFFSAR; not fully specified (some residues); printed as PP02: ABN: reporter eG(+6V)ndneeGF(+1F)s(+1A)r, ANP, substrate PVGLIG, nanocarrier PEG8-40 kDa) | enriched | enriched | metalloproteases or both metalloproteases and aspartic proteases | –
5 | PP09: ABN: reporter eGVndneeGF(+10F)s(+4A)r, ANP, substrate KPISLISSG, nanocarrier PEG8-40 kDa (chain 1 [dE]GV[dN][dD][dN][dE][dE]GF[+10F][dS][+4A][dR]; also: ANP photolabile linker, PEG8-40 kDa nanocarrier, linkage of reporter, ANP, substrate and carrier not given here) | enriched | enriched | metalloproteases or both metalloproteases and aspartic proteases | –
